Assay results taken from patent publication US20090318561A1 (MUTUAL PHARMACEUTICAL COMPANY, INC., priority 2008, published 2009).
Values joined by “and” are separate entries in the source; they are usually repeats but may differ in a detail not shown here. Equal values may be shown once. Read-outs that look alike come from different tables or passages of the source.

Legend:
[1] = system: CYP1A2 mRNA; assay: Quantitative RT-PCR analysis of CYP1A2 mRNA content in primary human hepatocytes; details: 3-MC 2 μM; for Relative Fold mRNA Content: single sample
Procedure: (§1) After isolation, hepatocytes were re-suspended in Dulbecco's modified Eagle medium (DMEM; Gibco BRL, Grand Island, N.Y.) containing 5% fetal bovine serum (FBS; Gibco BRL), insulin and dexamethasone (Gibco BRL) and added to plates coated with a collagen type I substratum (BD Biosciences, Bedford, Mass.). After attachment, serum-free William's E medium containing dexamethasone, insulin, transferrin, selenium (ITS^+, BD Biosciences) was added. Cultures of hepatocytes were maintained for 36 to 48 hours prior to initiating experiments.
(§2) Dosing solutions were prepared fresh daily in cell culture medium such that the final dimethyl sulfoxide (DMSO) concentration was 0.1%. At the conclusion of the treatment period, cells were incubated with substrates and harvested for total RNA isolations.
(§3) Cells in 24-well format were washed with one volume (0.5 mL) of Hank's Balanced Salt Solution and lysed by addition of 350 μL of ABI Nucleic Acid Lysis Solution (Applied Biosystems, Foster City, Calif.) and frozen at −70° C. Lysates were thawed and total RNA was isolated from each sample using an ABI 6100 Prepstation. Isolated RNA was analyzed using a Nanoprop® spectrophotometer (Wilmington, Del.) to estimate the total RNA concentrations, and RNA was stored at −70° C. For reverse transcription (RT), approximately 200 ng of pooled total RNA was converted to cDNA following the manufacturer's procedure for the High Capacity cDNA Archive Kit (Applied Biosystems, Foster City, Calif.).
(§4) CYP1A2 cDNA from human hepatocyte cultures was analyzed from each RT reaction using gene-specific TAQMAN® primer/probe sets (Applied Biosystems). Reactions with the specific primer/probes for beta-actin were analyzed as an endogenous control for CYP450 expression. Amplifications were performed on an ABI 7500 Real-Time PCR System (Applied Biosystems) in relative quantification mode for 40 amplification cycles using standard conditions for TaqMan®-based assays. Threshold cycle (CT) determinations were performed by the ABI 7500 system software for both CYP450 and endogenous control gene □-actin. Relative-fold mRNA content was determined for each treatment group relative to the endogenous control gene expression and 0.1% DMSO vehicle control for each sample using the relationship:
2^−ΔΔC^T=relative-fold mRNA content.
(§5) Data (activities and mRNA) were analyzed for mean and standard error. […] Initially, data were examined for homoscedasticity and normality (of residuals from the ANOVA model fitting) using Levene's and Shapiro-Wilk tests, respectively.
(§6) Negative control cultures were treated with media alone (in the presence or absence of 0.1% DMSO).

[2] = system: CYP1A2 mRNA; details: human, 3 days
Procedure: as §1, §2, §3, §4
2^−ΔΔC^T=relative-fold mRNA content.
as §5, §6

| SMILES | Mean Relative Fold mRNA Content ([1]; lot Hu485) | Percent of Adjusted Positive Control ([1]; lot Hu485) | Relative Fold mRNA Content ([1]; lot Hu485) | Mean Relative Fold mRNA Content ([1]; lot Hu503) | Percent of Positive Control ([1]; lot Hu503) | Relative Fold mRNA Content ([1]; lot Hu503) | Mean Relative Fold mRNA Content ([1]; lot Hu4021) | Percent of Positive Control ([1]; lot Hu4021) | Relative Fold mRNA Content ([1]; lot Hu4021) | Percent of Adjusted Positive Control ([2]; 1 nM) | Percent of Adjusted Positive Control ([2]; 10 nM) | Percent of Adjusted Positive Control ([2]; 100 nM) |
| --- | --- | --- | --- | --- | --- | --- | --- | --- | --- | --- | --- | --- |
| Cc1ccc2cc3c(ccc4ccccc43)c3c2c1CC3 [3-MC, 3-methylcholanthrene] | 396 | 100.00% | 361 and 445 and 380 | 161 | 100.00% | 167 and 137 and 180 | 71.9 | 100.00% | 68.7 and 69.1 and 77.8 | – | – | – |
| CC[C@]1(O)C[C@@H]2CN(CCc3c([nH]c4ccccc34)[C@@](C(=O)OC)(c3cc4c(cc3OC)N(C)[C@H]3[C@@](O)(C(=O)OC)[C@H](OC(C)=O)[C@]5(CC)C=CCN6CC[C@]43[C@@H]65)C2)C1 [vinblastine] | – | – | – | – | – | – | – | – | – | 1.23% | 1.18% | 0.70% |
